From ChEMBL document CHEMBL1139590, “Design, synthesis, and biological evaluation of novel human 5'-deoxy-5'-methylthioadenosine phosphorylase (MTAP) substrates” (Bioorg Med Chem Lett, 2005)
Values belong to the molecule of their own block, whether it stands above or below them.

Tests used:
[1] = molecular target: T1, S-methyl-5'-thioadenosine phosphorylase (Homo sapiens) (UniProt Q13126); test: Kcat against human methylthioadenosine phosphorylase expressed in Escherichia coli BL21 DE3 cells
T1 sequence (whole entry): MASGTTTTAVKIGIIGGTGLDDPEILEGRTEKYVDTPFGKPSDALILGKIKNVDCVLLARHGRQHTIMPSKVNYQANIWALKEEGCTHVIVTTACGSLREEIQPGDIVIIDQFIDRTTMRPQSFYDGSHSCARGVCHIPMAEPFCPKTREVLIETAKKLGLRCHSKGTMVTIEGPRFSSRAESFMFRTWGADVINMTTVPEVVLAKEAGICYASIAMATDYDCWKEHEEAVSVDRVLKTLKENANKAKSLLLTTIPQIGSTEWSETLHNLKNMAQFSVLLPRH

[2] = molecular target: T1, S-methyl-5'-thioadenosine phosphorylase (Homo sapiens); test: Ratio of Kcat to Km against human Methylthioadenosine phosphorylase
[3] = substrate: Nc1ncnc2c1ncn2[C@@H]1O[C@H](CSCCc2ccccn2)[C@@H](O)[C@H]1O; test: (§1) Km against human methylthioadenosine phosphorylase expressed in Escherichia coli BL21 DE3 cells
[4] = substrate: COc1ccc(SC[C@H]2O[C@@H](n3cnc4c(N)ncnc43)[C@H](O)[C@@H]2O)cc1; test: as §1
[5] = substrate: Nc1ncnc2c1ncn2[C@@H]1O[C@H](CSc2ccc3ccccc3n2)[C@@H](O)[C@H]1O; test: as §1
[6] = substrate: Nc1ncnc2c1ncn2[C@@H]1O[C@H](CSc2ccncc2)[C@@H](O)[C@H]1O; test: as §1
[7] = substrate: C[C@H]1O[C@@H](n2cnc3c(N)ncnc32)[C@H](O)[C@@H]1O; test: as §1
[8] = substrate: Cc1ccc(SC[C@H]2O[C@@H](n3cnc4c(N)ncnc43)[C@H](O)[C@@H]2O)cc1; test: as §1
[9] = substrate: Nc1ncnc2c1ncn2[C@@H]1O[C@H](CSc2ncc[nH]2)[C@@H](O)[C@H]1O; test: as §1
[10] = substrate: CSC[C@H]1O[C@@H](n2cnc3c(N)ncnc32)[C@H](N)[C@@H]1O; test: as §1
[11] = substrate: Nc1ncnc2c1ncn2[C@@H]1O[C@H](CSc2ccccn2)[C@@H](O)[C@H]1O; test: as §1
[12] = substrate: CCC(C)CSC[C@H]1O[C@@H](n2cnc3c(N)ncnc32)[C@H](O)[C@@H]1O; test: as §1
[13] = substrate: Nc1ncnc2c1ncn2[C@@H]1O[C@H](CSCc2ccccc2)[C@@H](O)[C@H]1O; test: as §1
[14] = substrate: Nc1ncnc2c1ncn2[C@@H]1O[C@H](COc2ccccc2)[C@@H](O)[C@H]1O; test: as §1
[15] = substrate: Cc1ccccc1SC[C@H]1O[C@@H](n2cnc3c(N)ncnc32)[C@H](O)[C@@H]1O; test: as §1
[16] = substrate: Nc1ncnc2c1ncn2[C@@H]1O[C@H](CSc2ccccc2)[C@@H](O)[C@H]1O; test: as §1
[17] = substrate: CSC[C@H]1O[C@@H](n2cnc3c(N)ncnc32)C[C@@H]1O; test: as §1
[18] = substrate: Nc1ncnc2c1ncn2[C@@H]1O[C@H](CCc2ccccc2)[C@@H](O)[C@H]1O; test: as §1
[19] = substrate: CSC[C@@H]1C[C@@H](O)[C@H](n2cnc3c(N)ncnc32)O1; test: as §1
[20] = substrate: CCCCSC[C@H]1O[C@@H](n2cnc3c(N)ncnc32)[C@H](O)[C@@H]1O; test: as §1
[21] = substrate: Nc1ncnc2c1ncn2[C@@H]1O[C@H](CSc2nccs2)[C@@H](O)[C@H]1O; test: as §1
[22] = substrate: CSC[C@H]1O[C@@H](n2cnc3c(N)ncnc32)C(N=[N+]=[N-])[C@@H]1O; test: as §1
[23] = substrate: Nc1ncnc2c1ncn2[C@@H]1O[C@H](CSC2CCCC2)[C@@H](O)[C@H]1O; test: as §1
[24] = substrate: Nc1ncnc2c1ncn2[C@@H]1O[C@H](CSc2ccc(C(F)(F)F)cc2)[C@@H](O)[C@H]1O; test: as §1
[25] = substrate: Cc1cccc(SC[C@H]2O[C@@H](n3cnc4c(N)ncnc43)[C@H](O)[C@@H]2O)c1; test: as §1
[26] = substrate: Nc1ncnc2c1ncn2[C@@H]1O[C@H](CSC2CCCCC2)[C@@H](O)[C@H]1O; test: as §1
[27] = substrate: CC(C)(C)SC[C@H]1O[C@@H](n2cnc3c(N)ncnc32)[C@H](O)[C@@H]1O; test: as §1
[28] = substrate: CC(C)CCSC[C@H]1O[C@@H](n2cnc3c(N)ncnc32)[C@H](O)[C@@H]1O; test: as §1
[29] = substrate: Nc1ncnc2c1ncn2[C@@H]1O[C@H](CNc2ccccc2)[C@@H](O)[C@H]1O; test: as §1
[30] = substrate: CC(C)CSC[C@H]1O[C@@H](n2cnc3c(N)ncnc32)[C@H](O)[C@@H]1O; test: as §1
[31] = substrate: CCSC[C@H]1O[C@@H](n2cnc3c(N)ncnc32)[C@H](O)[C@@H]1O; test: as §1
[32] = substrate: Nc1ncnc2c1ncn2[C@@H]1O[C@H](CSCCc2ccccc2)[C@@H](O)[C@H]1O; test: as §1
[33] = substrate: Nc1ncnc2c1ncn2[C@@H]1O[C@H](CSCCO)[C@@H](O)[C@H]1O; test: as §1

- K cat [1]: 2.02 s⁻¹
- Ratio [2]: 0.24 µM⁻¹ s⁻¹
Molecule: Nc1ncnc2c1ncn2[C@@H]1O[C@H](CNc2ccccc2)[C@@H](O)[C@H]1O

- K cat [1]: 1.5 s⁻¹
- Ratio [2]: 0.47 µM⁻¹ s⁻¹
Molecule: Nc1ncnc2c1ncn2[C@@H]1O[C@H](CSC2CCCC2)[C@@H](O)[C@H]1O

- K cat [1]: 0.004 s⁻¹
- Ratio [2]: 0.001 µM⁻¹ s⁻¹
Molecule: CSC[C@@H]1C[C@@H](O)[C@H](n2cnc3c(N)ncnc32)O1

- K cat [1]: 0.67 s⁻¹
- Ratio [2]: 0.022 µM⁻¹ s⁻¹
Molecule: CSC[C@H]1O[C@@H](n2cnc3c(N)ncnc32)[C@H](N)[C@@H]1O

- K cat [1]: 2.9 s⁻¹
- Ratio [2]: 1.6 µM⁻¹ s⁻¹
Molecule: CCSC[C@H]1O[C@@H](n2cnc3c(N)ncnc32)[C@H](O)[C@@H]1O

- K cat [1]: 0.3 s⁻¹
- Ratio [2]: 0.17 µM⁻¹ s⁻¹
Molecule: Nc1ncnc2c1ncn2[C@@H]1O[C@H](CSc2ccc(C(F)(F)F)cc2)[C@@H](O)[C@H]1O

- K cat [1]: 0.0004 s⁻¹
Molecule: CSC[C@H]1O[C@@H](n2cnc3c(N)ncnc32)C(F)[C@@H]1O (stereo partly drawn)

- K cat [1]: 1.46 s⁻¹
- Ratio [2]: 0.058 µM⁻¹ s⁻¹
Molecule: Nc1ncnc2c1ncn2[C@@H]1O[C@H](CSCCO)[C@@H](O)[C@H]1O

- K cat [1]: 4.6 s⁻¹
- Ratio [2]: 3.5 µM⁻¹ s⁻¹
Molecule: Nc1ncnc2c1ncn2[C@@H]1O[C@H](CCc2ccccc2)[C@@H](O)[C@H]1O

- K cat [1]: 1.5 s⁻¹
- Ratio [2]: 0.5 µM⁻¹ s⁻¹
Molecule: Nc1ncnc2c1ncn2[C@@H]1O[C@H](CSc2ccccc2)[C@@H](O)[C@H]1O

- K cat [1]: 0.85 s⁻¹
- Ratio [2]: 0.05 µM⁻¹ s⁻¹
Molecule: CC(C)(C)SC[C@H]1O[C@@H](n2cnc3c(N)ncnc32)[C@H](O)[C@@H]1O

- K cat [1]: 2.49 s⁻¹
- Ratio [2]: 0.73 µM⁻¹ s⁻¹
Molecule: Nc1ncnc2c1ncn2[C@@H]1O[C@H](CSc2nccs2)[C@@H](O)[C@H]1O

- K cat [1]: 0.28 s⁻¹
- Ratio [2]: 0.09 µM⁻¹ s⁻¹
Molecule: CSC[C@H]1O[C@@H](n2cnc3c(N)ncnc32)C[C@@H]1O

- K cat [1]: 0.23 s⁻¹
- Ratio [2]: 0.26 µM⁻¹ s⁻¹
Molecule: Nc1ncnc2c1ncn2[C@@H]1O[C@H](CSc2ccncc2)[C@@H](O)[C@H]1O

- K cat [1]: 0.8 s⁻¹
- Ratio [2]: 0.11 µM⁻¹ s⁻¹
Molecule: COc1ccc(SC[C@H]2O[C@@H](n3cnc4c(N)ncnc43)[C@H](O)[C@@H]2O)cc1

- K cat [1]: 5.9 s⁻¹
- Ratio [2]: 1.48 µM⁻¹ s⁻¹
Molecule: CCCCSC[C@H]1O[C@@H](n2cnc3c(N)ncnc32)[C@H](O)[C@@H]1O

- K cat [1]: 2.4 s⁻¹
- Ratio [2]: 1.2 µM⁻¹ s⁻¹
Molecule: Cc1cccc(SC[C@H]2O[C@@H](n3cnc4c(N)ncnc43)[C@H](O)[C@@H]2O)c1

- K cat [1]: 3.8 s⁻¹
- Ratio [2]: 0.42 µM⁻¹ s⁻¹
Molecule: Nc1ncnc2c1ncn2[C@@H]1O[C@H](CSc2ncc[nH]2)[C@@H](O)[C@H]1O

- K cat [1]: 2.3 s⁻¹
- Ratio [2]: 0.74 µM⁻¹ s⁻¹
Molecule: CC(C)CSC[C@H]1O[C@@H](n2cnc3c(N)ncnc32)[C@H](O)[C@@H]1O

- K cat [1]: 0.04 s⁻¹
- Ratio [2]: 1.1e-05 µM⁻¹ s⁻¹
Molecule: CSC[C@H]1O[C@@H](n2cnc3c(N)ncnc32)C(N=[N+]=[N-])[C@@H]1O (stereo partly drawn)

- K cat [1]: 0.18 s⁻¹
- Ratio [2]: 0.03 µM⁻¹ s⁻¹
Molecule: Cc1ccccc1SC[C@H]1O[C@@H](n2cnc3c(N)ncnc32)[C@H](O)[C@@H]1O

- K cat [1]: 3.16 s⁻¹
- Ratio [2]: 0.46 µM⁻¹ s⁻¹
Molecule: Nc1ncnc2c1ncn2[C@@H]1O[C@H](CSc2ccc3ccccc3n2)[C@@H](O)[C@H]1O

- K cat [1]: 0.0065 s⁻¹
- Ratio [2]: 0.0001 µM⁻¹ s⁻¹
Molecule: CSC[C@H]1O[C@@H](n2cnc3c(N)ncnc32)[C@H](O)[C@@H]1O (stereo in doubt; 7)

- K cat [1]: 4.8 s⁻¹
- Ratio [2]: 0.8 µM⁻¹ s⁻¹
Molecule: C[C@H]1O[C@@H](n2cnc3c(N)ncnc32)[C@H](O)[C@@H]1O

- K cat [1]: 2.5 s⁻¹
- Ratio [2]: 0.53 µM⁻¹ s⁻¹
Molecule: Nc1ncnc2c1ncn2[C@@H]1O[C@H](CSCc2ccccc2)[C@@H](O)[C@H]1O

- K cat [1]: 4.2 s⁻¹
- Ratio [2]: 0.84 µM⁻¹ s⁻¹
Molecule: CCC(C)CSC[C@H]1O[C@@H](n2cnc3c(N)ncnc32)[C@H](O)[C@@H]1O (stereo partly drawn)

- K cat [1]: 4.6 s⁻¹
- Ratio [2]: 3.2 µM⁻¹ s⁻¹
Molecule: CSC[C@H]1O[C@@H](n2cnc3c(N)ncnc32)[C@H](O)[C@@H]1O (stereo in doubt; 1)

- K cat [1]: 1.57 s⁻¹
- Ratio [2]: 0.45 µM⁻¹ s⁻¹
Molecule: Nc1ncnc2c1ncn2[C@@H]1O[C@H](CSC2CCCCC2)[C@@H](O)[C@H]1O

- K cat [1]: 3.44 s⁻¹
- Ratio [2]: 0.66 µM⁻¹ s⁻¹
Molecule: Nc1ncnc2c1ncn2[C@@H]1O[C@H](CSc2ccccn2)[C@@H](O)[C@H]1O

- K cat [1]: 1.01 s⁻¹
- Ratio [2]: 0.09 µM⁻¹ s⁻¹
Molecule: Nc1ncnc2c1ncn2[C@@H]1O[C@H](CSCCc2ccccn2)[C@@H](O)[C@H]1O

- K cat [1]: 1.11 s⁻¹
- Ratio [2]: 0.09 µM⁻¹ s⁻¹
Molecule: Nc1ncnc2c1ncn2[C@@H]1O[C@H](COc2ccccc2)[C@@H](O)[C@H]1O

- K cat [1]: 2.14 s⁻¹
- Ratio [2]: 0.43 µM⁻¹ s⁻¹
Molecule: Nc1ncnc2c1ncn2[C@@H]1O[C@H](CSCCc2ccccc2)[C@@H](O)[C@H]1O

- K cat [1]: 1.4 s⁻¹
- Ratio [2]: 0.93 µM⁻¹ s⁻¹
Molecule: Cc1ccc(SC[C@H]2O[C@@H](n3cnc4c(N)ncnc43)[C@H](O)[C@@H]2O)cc1

- K cat [1]: 5.5 s⁻¹
- Ratio [2]: 1.96 µM⁻¹ s⁻¹
Molecule: CC(C)CCSC[C@H]1O[C@@H](n2cnc3c(N)ncnc32)[C@H](O)[C@@H]1O

B1: S-methyl-5'-thioadenosine phosphorylase (Homo sapiens), Q13126 (protein)
chain: T1 sequence (whole entry)
- Km [3]: 10.2 µM
- Km [4]: 7 µM
- Km [5]: 6.9 µM
- Km [6]: 0.88 µM
- Km [7]: 6 µM
- Km [8]: 1.5 µM
- Km [9]: 9 µM
- Km [10]: 30 µM
- Km [11]: 5.2 µM
- Km [12]: 5 µM
- Km [13]: 4.6 µM
- Km [14]: 12 µM
- Km [15]: 5.6 µM
- Km [16]: 3 µM
- Km [17]: 3.1 µM
- Km [18]: 1.3 µM
- Km [19]: 3.9 µM
- Km [20]: 4 µM
- Km [21]: 3.4 µM
- Km [22]: 3600 µM
- Km [23]: 3.2 µM
- Km [24]: 1.7 µM
- Km [25]: 2 µM
- Km [26]: 3.5 µM
- Km [27]: 17 µM
- Km [28]: 2.8 µM
- Km [29]: 8.5 µM
- Km [30]: 3.1 µM
- Km [31]: 1.8 µM
- Km [32]: 5 µM
- Km [33]: 25 µM
